Assay results from patent US20100092526A1, “NANOEMULSION THERAPEUTIC COMPOSITIONS AND METHODS OF USING THE SAME” (NanoBio Corporation, priority 2008, published 2010).
Values after ≈ are worked out from the molar mass of the structure shown. Where two headings read alike, the source gives them in different places.

Key:
Pseudomonas aeruginosa [1] = test: MIC/MBC of nanoemulsions against gram-negative isolates (CLSI, alamar blue); format: cell-based; conditions: Pseudomonas aeruginosa (n = 5)
Klebsiella pneumoniae = test: as above; format: cell-based; conditions: Klebsiella pneumoniae (n = 5)
[2] = tested on: Stenotrophomonas maltophilia; test: as above; format: cell-based; conditions: Stenotrophomonas maltophilia (n = 5)
Proteus mirabilis = test: as above; format: cell-based; conditions: Proteus mirabilis (n = 5)
Acinetobacter baumannii [3] = test: as above; format: cell-based; conditions: Acinetobacter baumannii (n = 5)
Burkholderia cepacia = test: as above; format: cell-based; conditions: Burkholderia cepacia (n = 5)
Acinetobacter baumannii [4] = test: MIC/MBC against clinical isolates (CLSI, alamar blue); conditions: Acinetobacter baumannii
Escherichia coli = test: MIC/MBC of nanoemulsions against gram-negative isolates (CLSI, alamar blue); format: cell-based; conditions: Escherichia coli (n = 5)
Pseudomonas aeruginosa [5] = test: MIC/MBC against CF isolates (CLSI, alamar blue); conditions: Pseudomonas aeruginosa
Burkholderia cenocepacia = test: MIC/MBC against CF isolates (CLSI, alamar blue); conditions: Burkholderia cenocepacia
[6] = tested on: Stenotrophomonas maltophilia; test: MIC/MBC against CF isolates (CLSI, alamar blue); conditions: Stenotrophomonas maltophilia
[7] = nanoemulsions in the presence of 5 mM EDTA
[8] = nanoemulsions in the presence of 5 mM EDTA, in µg/mL
[9] = CF Stenotrophomonas isolate NB41
[10] = CF Stenotrophomonas isolate NB42
[11] = CF Stenotrophomonas isolate NB43
[12] = CF Stenotrophomonas isolate NB44
[13] = CF Stenotrophomonas isolate NB45
[14] = CF Stenotrophomonas isolate Steno 1
[15] = CF Stenotrophomonas isolate Steno 2
[16] = CF Stenotrophomonas isolate Steno 3
[17] = CF Stenotrophomonas isolate Steno 4
[18] = CF Stenotrophomonas isolate Steno 6
[19] = CF Stenotrophomonas isolate Steno 8

C[C@H]1COc2c(N3CCN(C)CC3)c(F)cc3c(=O)c(C(=O)O)cn1c23 [Levofloxacin]
% resistant (Pseudomonas aeruginosa [1]): 0.0%
% susceptible (Pseudomonas aeruginosa [1]): 80.0%
MIC50 (Pseudomonas aeruginosa [1]; [7]): 1 µg/mL
MIC Range (Pseudomonas aeruginosa [1]; [8]): 0.25-4
% resistant (Klebsiella pneumoniae): 20.0%
% susceptible (Klebsiella pneumoniae): 80.0%
MIC50 (Klebsiella pneumoniae; [7]): 0.06 µg/mL
MIC Range (Klebsiella pneumoniae; [8]): 0.06-8
% resistant [2]: 20.0%
% susceptible [2]: 60.0%
MIC50 [2, 7]: 0.5 µg/mL
MIC Range [2, 8]: 0.5-8
% resistant (Proteus mirabilis): 0.0%
% susceptible (Proteus mirabilis): 100.0%
MIC50 (Proteus mirabilis; [7]): 0.12 µg/mL
MIC Range (Proteus mirabilis; [8]): 0.06-2
% resistant (Acinetobacter baumannii [3]): 20.0%
% susceptible (Acinetobacter baumannii [3]): 80.0%
MIC50 (Acinetobacter baumannii [3]; [7]): 0.25 µg/mL
% resistant (Burkholderia cepacia): 0.0%
% susceptible (Burkholderia cepacia): 100.0%
MIC50 (Burkholderia cepacia; [7]): 2 µg/mL
MIC Range (Burkholderia cepacia; [8]): 1-2
MIC50 (Acinetobacter baumannii [4]): 16 µg/mL (≈ 44.3 µM)
MIC90 (Acinetobacter baumannii [4]): > 16 µg/mL
MBC (Acinetobacter baumannii [4]; Acinetobacter isolate NB31): 16 µg/mL (≈ 44.3 µM)
MIC (Acinetobacter baumannii [4]; Acinetobacter isolate NB31): 16 µg/mL (≈ 44.3 µM)
MBC (Acinetobacter baumannii [4]; Acinetobacter isolate NB32): 8 µg/mL (≈ 22.1 µM)
MIC (Acinetobacter baumannii [4]; Acinetobacter isolate NB32): 8 µg/mL (≈ 22.1 µM)
MBC (Acinetobacter baumannii [4]; Acinetobacter isolate NB33): 8 µg/mL (≈ 22.1 µM)
MIC (Acinetobacter baumannii [4]; Acinetobacter isolate NB33): 8 µg/mL (≈ 22.1 µM)
MBC (Acinetobacter baumannii [4]; Acinetobacter isolate NB34): 16 µg/mL (≈ 44.3 µM)
MIC (Acinetobacter baumannii [4]; Acinetobacter isolate NB34): 16 µg/mL (≈ 44.3 µM)
MBC (Acinetobacter baumannii [4]; Acinetobacter isolate NB35): > 16 µg/mL
MIC (Acinetobacter baumannii [4]; Acinetobacter isolate NB35): > 16 µg/mL
MBC (Acinetobacter baumannii [4]; Acinetobacter isolate NB36): 1 µg/mL (≈ 2.77 µM)
MIC (Acinetobacter baumannii [4]; Acinetobacter isolate NB36): 1 µg/mL (≈ 2.77 µM)
MBC (Acinetobacter baumannii [4]; Acinetobacter isolate NB37): 16 µg/mL (≈ 44.3 µM)
MIC (Acinetobacter baumannii [4]; Acinetobacter isolate NB37): 16 µg/mL (≈ 44.3 µM)
MBC (Acinetobacter baumannii [4]; Acinetobacter isolate NB38): > 16 µg/mL
MIC (Acinetobacter baumannii [4]; Acinetobacter isolate NB38): 8 µg/mL (≈ 22.1 µM)
MBC (Acinetobacter baumannii [4]; Acinetobacter isolate NB39): 16 µg/mL (≈ 44.3 µM)
MIC (Acinetobacter baumannii [4]; Acinetobacter isolate NB39): 16 µg/mL (≈ 44.3 µM)
MBC (Acinetobacter baumannii [4]; Acinetobacter isolate NB40): > 16 µg/mL
MIC (Acinetobacter baumannii [4]; Acinetobacter isolate NB40): > 16 µg/mL
MBC (Acinetobacter baumannii [4]; read-out: MBC 50, 10 Acinetobacter isolates): 16 µg/mL (≈ 44.3 µM)
% resistant (Escherichia coli): 40.0%
% susceptible (Escherichia coli): 60.0%
MIC50 (Escherichia coli; [7]): 0.03 µg/mL
MIC50 (Pseudomonas aeruginosa [5]): 0.5 µg/mL (≈ 1.38 µM)
MIC90 (Pseudomonas aeruginosa [5]): 8 µg/mL (≈ 22.1 µM)
MBC (Pseudomonas aeruginosa [5]; CF Pseudomonas isolate NB1): 1 µg/mL (≈ 2.77 µM)
MIC (Pseudomonas aeruginosa [5]; CF Pseudomonas isolate NB1): 0.5 µg/mL (≈ 1.38 µM)
MBC (Pseudomonas aeruginosa [5]; CF Pseudomonas isolate NB2): 0.5 µg/mL (≈ 1.38 µM)
MIC (Pseudomonas aeruginosa [5]; CF Pseudomonas isolate NB2): 0.5 µg/mL (≈ 1.38 µM)
MBC (Pseudomonas aeruginosa [5]; CF Pseudomonas isolate NB3): 0.5 µg/mL (≈ 1.38 µM)
MIC (Pseudomonas aeruginosa [5]; CF Pseudomonas isolate NB3): 0.25 µg/mL (≈ 0.692 µM)
MBC (Pseudomonas aeruginosa [5]; CF Pseudomonas isolate NB4): 0.5 µg/mL (≈ 1.38 µM)
MIC (Pseudomonas aeruginosa [5]; CF Pseudomonas isolate NB4): 0.25 µg/mL (≈ 0.692 µM)
MBC (Pseudomonas aeruginosa [5]; CF Pseudomonas isolate NB5): 1 µg/mL (≈ 2.77 µM)
MIC (Pseudomonas aeruginosa [5]; CF Pseudomonas isolate NB5): 0.5 µg/mL (≈ 1.38 µM)
MBC (Pseudomonas aeruginosa [5]; CF Pseudomonas isolate NB6): 1 µg/mL (≈ 2.77 µM)
MIC (Pseudomonas aeruginosa [5]; CF Pseudomonas isolate NB6): 0.5 µg/mL (≈ 1.38 µM)
MBC (Pseudomonas aeruginosa [5]; CF Pseudomonas isolate NB7): 1 µg/mL (≈ 2.77 µM)
MIC (Pseudomonas aeruginosa [5]; CF Pseudomonas isolate NB7): 0.5 µg/mL (≈ 1.38 µM)
MBC (Pseudomonas aeruginosa [5]; CF Pseudomonas isolate NB8): 0.5 µg/mL (≈ 1.38 µM)
MIC (Pseudomonas aeruginosa [5]; CF Pseudomonas isolate NB8): 0.5 µg/mL (≈ 1.38 µM)
MBC (Pseudomonas aeruginosa [5]; CF Pseudomonas isolate NB9): 0.5 µg/mL (≈ 1.38 µM)
MIC (Pseudomonas aeruginosa [5]; CF Pseudomonas isolate NB9): 0.5 µg/mL (≈ 1.38 µM)
MBC (Pseudomonas aeruginosa [5]; CF Pseudomonas isolate NB10): 0.5 µg/mL (≈ 1.38 µM)
MIC (Pseudomonas aeruginosa [5]; CF Pseudomonas isolate NB10): 0.5 µg/mL (≈ 1.38 µM)
MBC (Pseudomonas aeruginosa [5]; CF Pseudomonas isolate NB11): 16 µg/mL (≈ 44.3 µM)
MIC (Pseudomonas aeruginosa [5]; CF Pseudomonas isolate NB11): 8 µg/mL (≈ 22.1 µM)
MBC (Pseudomonas aeruginosa [5]; CF Pseudomonas isolate NB12): 1 µg/mL (≈ 2.77 µM)
MIC (Pseudomonas aeruginosa [5]; CF Pseudomonas isolate NB12): 0.25 µg/mL (≈ 0.692 µM)
MBC (Pseudomonas aeruginosa [5]; CF Pseudomonas isolate NB13): 2 µg/mL (≈ 5.53 µM)
MIC (Pseudomonas aeruginosa [5]; CF Pseudomonas isolate NB13): 0.5 µg/mL (≈ 1.38 µM)
MBC (Pseudomonas aeruginosa [5]; CF Pseudomonas isolate NB14): > 16 µg/mL
MIC (Pseudomonas aeruginosa [5]; CF Pseudomonas isolate NB14): 16 µg/mL (≈ 44.3 µM)
MBC (Pseudomonas aeruginosa [5]; CF Pseudomonas isolate NB15): 4 µg/mL (≈ 11.1 µM)
MIC (Pseudomonas aeruginosa [5]; CF Pseudomonas isolate NB15): 2 µg/mL (≈ 5.53 µM)
MBC (Pseudomonas aeruginosa [5]; CF Pseudomonas isolate NB16): 8 µg/mL (≈ 22.1 µM)
MIC (Pseudomonas aeruginosa [5]; CF Pseudomonas isolate NB16): 2 µg/mL (≈ 5.53 µM)
MBC (Pseudomonas aeruginosa [5]; CF Pseudomonas isolate NB17): 16 µg/mL (≈ 44.3 µM)
MIC (Pseudomonas aeruginosa [5]; CF Pseudomonas isolate NB17): 16 µg/mL (≈ 44.3 µM)
MBC (Pseudomonas aeruginosa [5]; CF Pseudomonas isolate NB18): 8 µg/mL (≈ 22.1 µM)
MIC (Pseudomonas aeruginosa [5]; CF Pseudomonas isolate NB18): 4 µg/mL (≈ 11.1 µM)
MBC (Pseudomonas aeruginosa [5]; CF Pseudomonas isolate NB19): 4 µg/mL (≈ 11.1 µM)
MIC (Pseudomonas aeruginosa [5]; CF Pseudomonas isolate NB19): 2 µg/mL (≈ 5.53 µM)
MBC (Pseudomonas aeruginosa [5]; CF Pseudomonas isolate NB20): 1 µg/mL (≈ 2.77 µM)
MIC (Pseudomonas aeruginosa [5]; CF Pseudomonas isolate NB20): 0.5 µg/mL (≈ 1.38 µM)
MBC (Pseudomonas aeruginosa [5]; read-out: MBC 50, 20 CF Pseudomonas isolates): 1 µg/mL (≈ 2.77 µM)
MBC (Pseudomonas aeruginosa [5]; read-out: MBC 50, second MBC 50 line of the summary, Stenotrophomonas, values equal those of the CF Pseudomonas isolates): 1 µg/mL (≈ 2.77 µM)
MBC (Pseudomonas aeruginosa [5]; read-out: MBC 90, 20 CF Pseudomonas isolates): 16 µg/mL (≈ 44.3 µM)
MBC (Pseudomonas aeruginosa [5]; read-out: MBC 90, second MBC 90 line of the summary, Stenotrophomonas, values equal those of the CF Pseudomonas isolates): 16 µg/mL (≈ 44.3 µM)
MBC (Burkholderia cenocepacia; CF Burkholderia isolate NB21): 2 µg/mL (≈ 5.53 µM)
MIC (Burkholderia cenocepacia; CF Burkholderia isolate NB21): 2 µg/mL (≈ 5.53 µM)
MBC (Burkholderia cenocepacia; CF Burkholderia isolate NB22): 4 µg/mL (≈ 11.1 µM)
MIC (Burkholderia cenocepacia; CF Burkholderia isolate NB22): 1 µg/mL (≈ 2.77 µM)
MBC (Burkholderia cenocepacia; CF Burkholderia isolate NB23): > 16 µg/mL
MIC (Burkholderia cenocepacia; CF Burkholderia isolate NB23): 8 µg/mL (≈ 22.1 µM)
MBC (Burkholderia cenocepacia; CF Burkholderia isolate NB24): 16 µg/mL (≈ 44.3 µM)
MIC (Burkholderia cenocepacia; CF Burkholderia isolate NB24): 8 µg/mL (≈ 22.1 µM)
MBC (Burkholderia cenocepacia; CF Burkholderia isolate NB25): 8 µg/mL (≈ 22.1 µM)
MIC (Burkholderia cenocepacia; CF Burkholderia isolate NB25): 4 µg/mL (≈ 11.1 µM)
MBC (Burkholderia cenocepacia; CF Burkholderia isolate NB26): 8 µg/mL (≈ 22.1 µM)
MIC (Burkholderia cenocepacia; CF Burkholderia isolate NB26): 8 µg/mL (≈ 22.1 µM)
MBC (Burkholderia cenocepacia; CF Burkholderia isolate NB27): 8 µg/mL (≈ 22.1 µM)
MIC (Burkholderia cenocepacia; CF Burkholderia isolate NB27): 4 µg/mL (≈ 11.1 µM)
MBC (Burkholderia cenocepacia; CF Burkholderia isolate NB28b): 2 µg/mL (≈ 5.53 µM)
MIC (Burkholderia cenocepacia; CF Burkholderia isolate NB28b): 1 µg/mL (≈ 2.77 µM)
MBC (Burkholderia cenocepacia; CF Burkholderia isolate NB29): 4 µg/mL (≈ 11.1 µM)
MIC (Burkholderia cenocepacia; CF Burkholderia isolate NB29): 1 µg/mL (≈ 2.77 µM)
MBC (Burkholderia cenocepacia; CF Burkholderia isolate NB30): 1 µg/mL (≈ 2.77 µM)
MIC (Burkholderia cenocepacia; CF Burkholderia isolate NB30): 1 µg/mL (≈ 2.77 µM)
MBC [6]: 16 µg/mL (≈ 44.3 µM)
MIC50 [6]: 2 µg/mL (≈ 5.53 µM)
MIC90 [6]: 8 µg/mL (≈ 22.1 µM)
MBC [6, 9]: 4 µg/mL (≈ 11.1 µM)
MIC [6, 9]: 2 µg/mL (≈ 5.53 µM)
MBC [6, 10]: 16 µg/mL (≈ 44.3 µM)
MIC [6, 10]: 8 µg/mL (≈ 22.1 µM)
MBC [6, 11]: 4 µg/mL (≈ 11.1 µM)
MIC [6, 11]: 2 µg/mL (≈ 5.53 µM)
MBC [6, 12]: 16 µg/mL (≈ 44.3 µM)
MIC [6, 12]: 8 µg/mL (≈ 22.1 µM)
MBC [6, 13]: 2 µg/mL (≈ 5.53 µM)
MIC [6, 13]: 1 µg/mL (≈ 2.77 µM)
MBC [6, 14]: 4 µg/mL (≈ 11.1 µM)
MIC [6, 14]: 1 µg/mL (≈ 2.77 µM)
MBC [6, 15]: 8 µg/mL (≈ 22.1 µM)
MIC [6, 15]: 4 µg/mL (≈ 11.1 µM)
MBC [6, 16]: 4 µg/mL (≈ 11.1 µM)
MIC [6, 16]: 1 µg/mL (≈ 2.77 µM)
MBC [6, 17]: 2 µg/mL (≈ 5.53 µM)
MIC [6, 17]: 0.5 µg/mL (≈ 1.38 µM)
MBC [6, 18]: 4 µg/mL (≈ 11.1 µM)
MIC [6, 18]: 2 µg/mL (≈ 5.53 µM)
MBC [6, 19]: 2 µg/mL (≈ 5.53 µM)
MIC [6, 19]: 2 µg/mL (≈ 5.53 µM)
MBC ([6]; read-out: MBC 50, 11 CF Stenotrophomonas isolates): 4 µg/mL (≈ 11.1 µM)
